Results published in patent US10233201B2, “Class of HDAC inhibitors expands the renal progenitor cells population and improves the rate of recovery from acute kidney injury” (University of Pittsburgh—Of the Commonwealth System of …, priority 2012, dated 2019).
Several values for one entry are separate records, joined by “and”; a condition that tells them apart may be missing. Equal entries are not always repeated. Where two headings read alike, the source gives them in different places.

Legend:
[1] = test system: renal progenitor cells (lhx1a expression); test: In situ hybridization for lhx1a expression in 10-somite embryos (renal progenitor cell expansion); format: in vivo; details: for embryos with expanded lhx1a expression (% expansion) / lhx1a expansion class, 3 μM: 3 μM from 2 hpf, 10-somite embryos; for lhx1a expansion class, 800 nM: 800 nM from 2 hpf; for lhx1a expansion class, 200 nM: 200 nM from 2 hpf; for lhx1a expansion class, 400 nM: 400 nM from 2 hpf; for Expansion of Cells, 200 nM / Expansion of Cells, 800 nM / Expansion of Cells, 1.5 μM / Expansion of Cells, 400 nM: lhx1a in situ hybridization, includes repeats* and recounts
Method: (§1) PTBA was synthesized as described below. Hydroxyurea and aphidicolin were obtained from Sigma-Aldrich.
(§2) In situ hybridization and immunocytochemistry: In situ hybridization was performed as previously described with some modifications. 142 Hybridization temperature was 65° C. Embryos were blocked in 2% blocking reagent (Roche) with 5% sheep serum in MAB (100 mM maleic acid and 150 mM NaCl [pH 7.5]). Whole-mount immunocytochemistry with 1:25 mouse anti-α6F antibody (Developmental Studies Hybridoma Bank) and 1:100 Cy3 secondary antibody (Jackson ImmunoResearch) was performed as described previously. 108 Embryos were embedded in JB-4 for sectioning per the manufacturer's instructions (Polysciences), sectioned at 5 μm, and mounted with Cytoseal 60 (Richard-Allan Scientific).
The remaining PTBA analogs were synthesized.
In situ hybridization for lhx1a was performed as described above. […] Compounds were classified as effective, partially-effective or ineffective based on comparison to the effects of PTBA at a given concentration.
Testing of the compounds is on-going, but for those tested, Table 3 provides first pass EC50s based upon colormetric in situ hybridizations for the Lhx1a mRNA expression levels. After the procedure is run, in situ hybridization is done for the lhx1 mRNA expression and the number of embryos that show an expanded kidney field is manually counted to establish the percent of embryos showing expansion. Then the EC50 is determined by plotting the percent expansion in Excel, graphing the results and using the trendline function to determine the 50 percent point. […] For UPHD-00186, the 4 values for EC50 are shown in Table 3 for the corresponding expression in zebrafish embryos employed an artificial intelligence-based image analysis method termed cognition network technology (CNT) for n=4.

zebrafish larvae = test: Phenotypic scoring of edema and survival in zebrafish larvae at 72 hpf; format: in vivo; details: for larval phenotype in phenotypic screen of analogs: 3 μM, 2 to 72 hpf; for phenotype in initial chemical screen: 10 μM, larvae at 72 hpf
Text: as §1
Wild type: no visible edema or developmental delay.

[2] = test system: pax2a, pax8 expression (kidney field); test: In situ hybridization for renal progenitor markers pax2a, pax8 / kidney field; format: in vivo, zebrafish; details: screen hits, data not shown
Method: as §1, §2

[3] = test system: human HDACs (HeLa cell nuclear extract); test: Fluorescence histone deacetylation assay with HeLa cell nuclear extract; format: biochemical; details: 5 mM compound, 10 μg HeLa extract
Method: To evaluate this in vitro, the deacetylation of a fluorescent peptide substrate was measured in the presence of human HDACs.
In vitro HDAC activity assays were performed using a fluorescence HDAC assay kit (Active Motif) according to the manufacturer's instructions. For maintaining compound solubility at 5 mM, the final DMSO concentration in all assay wells was increased to 5%. Fluorescence was detected using an M5 Plate Reader ([…])

[4] = test system: mouse models of unilateral ureteral obstruction (UUO); test: Unilateral ureteral obstruction (UUO); format: in vivo; details: IP days 0 to 6, kidneys harvested at day 7
Text: The model of unilateral ureteral obstruction generates progressive renal fibrosis. Surgically created UUO can be experimentally manipulated with respect to timing, severity, and duration, while reversal of the obstruction permits the study of recovery.
FIG. 47 represents the results of the testing of compounds UPHD-00022, UPHD-00025 (PTBA), UPHD-00029, UPHD-00036, and UPHD-00186, for their efficacy in mouse models of unilateral ureteral obstruction (UUO) as follows: in the UUO models, one ureter was ligated for 7 days and compounds were delivered via IP for days 0 to 6. At day 7 kidneys were harvested for Sirius red staining. […] Therefore, in the models tested, the only compound proven to be effective in all models and with significant delayed onset of treatment is UPHD-186.

[5] = Danio rerio, 800 nM, read-out: embryos with expanded lhx1a expression (% expansion)
[6] = Danio rerio, 400 nM, read-out: embryos with expanded lhx1a expression (% expansion)

Compound: 2-amino-PTBA [Compound 2-amino-PTBA, reference compound]
- embryos with expanded lhx1a expression (% expansion) [1]: no expansion

Compound: O=C(O)c1cccc(Sc2ccccc2)c1 [3-(phenylthio)benzoic acid, reference compound]
- embryos with expanded lhx1a expression (% expansion) [1]: no expansion

Compound: O=C(O)CCCSc1ccc2ccccc2c1 [4-(naphthalen-2-ylthio)butanoic acid, reference compound]
- embryos with expanded lhx1a expression (% expansion) ([1]; listed as 4-(napthalen-2-ylthio)butanoic acid): no expansion

Compound: O=C(CCCSc1ccc(Cl)cc1)NO [4-[(4-chlorophenyl)thio]-N-hydroxybutanamide]
- lhx1a expansion class, 800 nM [1]: +/−

Compound: O=C(O)CCCCc1ccccc1 [5-phenylpentanoic acid, reference compound]
- embryos with expanded lhx1a expression (% expansion) [1]: no expansion

Compound: Cn1cc(C(=O)Cc2ccccc2)cc1/C=C/C(=O)NO [APHA compound 8, reference compound]
- lhx1a expansion class, 3 μM [1]: −

Compound: Nc1ccccc1NC(=O)c1ccc(CNC(=O)OCc2cccnc2)cc1 [MS-275, reference compound]
- lhx1a expansion class, 3 μM [1]: −
- larval phenotype in phenotypic screen of analogs (zebrafish larvae): showed no effect on zebrafish embryos

Compound: O=C(CCCSc1ccccc1)NO [N-hydroxy-4-(phenylthio)butanamide]
- lhx1a expansion class, 800 nM [1]: +/−

Compound: Cc1ccc(SCCCC(=O)NO)cc1 [N-hydroxy-4-[(4-methylphenyl)thio]butanamide]
- lhx1a expansion class, 200 nM [1]: −
- lhx1a expansion class, 400 nM [1]: −
- lhx1a expansion class, 800 nM [1]: +
- responders at 0.8 µM [1, 5]: 61%

Compound: N=C(N)SCc1ccc(Cl)cc1Cl.O=[N+]([O-])c1c(O)c(Cl)cc(Cl)c1Cl [NSC35400]
- phenotype in initial chemical screen (zebrafish larvae): generated pericardial edema
- effect on size of the kidney field / renal markers (in situ hybridization) [2]: did not affect the size of the kidney field

Compound: COc1ccc(/C=C(\C#N)C(N)=O)c(OC)c1 [NSC134664]
- phenotype in initial chemical screen (zebrafish larvae): generated pericardial edema
- effect on size of the kidney field / renal markers (in situ hybridization) [2]: did not affect the size of the kidney field

Compound: N=C(N)c1ccc(N=Nc2c(O)ccc3c2[nH]c2ccccc23)cc1 [NSC357777]
- phenotype in initial chemical screen (zebrafish larvae): generated pericardial edema
- effect on size of the kidney field / renal markers (in situ hybridization) [2]: did not affect the size of the kidney field

Compound: O=C(O)CCCS(=O)(=O)c1ccccc1 [PSOBA, 4-(phenylsulfonyl)butanoic acid, reference compound]
- embryos with expanded lhx1a expression (% expansion) [1]: no ability to expand renal progenitor cells
- HDAC activity, % of the control value [3]: 70%

Compound: O=C(CCCCCCC(=O)Nc1ccccc1)NO [SAHA, reference compound]
- lhx1a expansion class, 3 μM [1]: −
- larval phenotype in phenotypic screen of analogs (zebrafish larvae): showed no effect on zebrafish embryos

Compound: O=C(CCCSc1ccc(F)cc1)NO [UPHD-00029, 4-[(4-fluorophenyl)sulfanyl]-N-hydroxybutanamide]
- lhx1a expansion class, 200 nM [1]: −
- lhx1a expansion class, 400 nM [1]: +/−
- lhx1a expansion class, 800 nM [1]: +
- responders at 0.4 µM [1, 6]: 35%
- responders at 0.8 µM [1, 5]: 60%
- Expansion of Cells, 200 nM [1]: 6.25%
- Expansion of Cells, 800 nM [1]: 60% and 33%
- Expansion of Cells, 1.5 μM [1]: 82.4%
- fibrosis (Sirius red) and expression of fibrosis markers in UUO kidney [4]: reduce both fibrosis and expression of fibrosis markers

Compound: Nc1ccccc1NC(=O)CCCSc1ccccc1 [UPHD-00036, N-(2-aminophenyl)-4-(phenylsulfanyl)butanamide]
- fibrosis (Sirius red) and expression of fibrosis markers in UUO kidney [4]: reduce both fibrosis and expression of fibrosis markers

Compound: O=C(CCCCCSc1ccccc1)Nc1ccccc1O [UPHD-00187, N-(2-hydroxyphenyl)-6-(phenylsulfanyl) hexanamide]
- Expansion of Cells, 400 nM [1]: 58%
- Expansion of Cells, 800 nM [1]: 52%
- Expansion of Cells, 1.5 μM [1]: 52%

Compound: Nc1ccccc1NC(=O)CCCCSCc1ccccc1 [UPHD-00188, N-(2-aminophenyl)-5-(benzysulfanyl) pentanamide]
- Expansion of Cells, 800 nM [1]: 0%
- Expansion of Cells, 1.5 μM [1]: 0%

Compound: Nc1ccccc1NC(=O)CCCSCCc1ccccc1 [UPHD-00190, N-(2-aminophenyl)-4-[(2-phenylethyl)sulfanyl]butanamide]
- expansion ([1]; 0.055 μM): 72%
- Expansion of Cells, 200 nM [1]: 50%
- Expansion of Cells, 400 nM [1]: 0%
- Expansion of Cells, 800 nM [1]: 0%
- Expansion of Cells, 1.5 μM [1]: 0%

Compound: CCC(=O)CCCCC[C@@H]1NC(=O)[C@H]2CCCCN2C(=O)[C@H]([C@@H](C)CC)NC(=O)[C@H](Cc2cn(OC)c3ccccc23)NC1=O [apicidin, reference compound]
- lhx1a expansion class, 200 nM [1]: −
- lhx1a expansion class, 400 nM [1]: +/−
- lhx1a expansion class, 800 nM [1]: XX^1
- embryos surviving treatment ([1]; 800 nM, n=36): 31%
- treated embryos killed ([1]; 800 nM, n=36): 69%
- lethality before the 10-somite stage ([1]; 1.5 μM): lethal
- lethality before the 10-somite stage ([1]; 3 μM): killed all treated embryos
- responders at 0.4 µM ([1]; Danio rerio, read-out: embryos with expanded lhx1a expression (% expansion), 400 nM): 22%

Compound: CCC(C)OC(=O)CCCSc1ccccc1 (stereo not shown) [butan-2-yl 4-(phenylthio)butanoate]
- lhx1a expansion class, 800 nM [1]: +/−

Compound: COC(=O)CCCSc1ccc(F)cc1 [methyl 4-[(4-fluorophenyl)thio]butanoate]
- lhx1a expansion class, 200 nM [1]: +/−
- lhx1a expansion class, 400 nM [1]: +/−
- lhx1a expansion class, 800 nM [1]: +
- lethality before the 10-somite stage ([1]; 3 μM): killed all treated embryos
- responders at 0.2 µM ([1]; Danio rerio, 200 nM, read-out: embryos with expanded lhx1a expression (% expansion)): 22%
- responders at 0.4 µM [1, 6]: 26%
- responders at 0.8 µM [1, 5]: 64%

Compound: COC(=O)CCCSc1ccc(C)cc1 [methyl 4-[(4-methylphenyl)thio]butanoate]
- lhx1a expansion class, 200 nM [1]: −
- lhx1a expansion class, 400 nM [1]: −
- lhx1a expansion class, 800 nM [1]: +
- responders at 0.8 µM [1, 5]: 49%

Compound: CCCOC(=O)CCCSc1ccccc1 [propyl 4-(phenylthio)butanoate]
- lhx1a expansion class, 800 nM [1]: +/−

Compound: CC(C)(C)OC(=O)CCCSc1ccccc1 [tert-butyl 4-(phenylthio)butanoate]
- larval phenotype in phenotypic screen of analogs (zebrafish larvae): did not cause a statistically-significant decrease in the number of wild-type larval phenotypes

Compound: O=C(CCCCCCC(=O)Nc1ccc([C@H]2O[C@@H](CSc3nc(-c4ccccc4)c(-c4ccccc4)o3)C[C@@H](c3ccc(CO)cc3)O2)cc1)NO [tubacin]
- larval phenotype in phenotypic screen of analogs (zebrafish larvae): appeared wild-type

Compound: CCCC(CCC)C(=O)O [valproic acid]
- larval phenotype in phenotypic screen of analogs (zebrafish larvae): generated edemic and/or lethal phenotypes
